Assays:
[1] = biological target: T1, Gag-Pol polyprotein [588-1027,K691N,Y769C]/[588-1147,K691N,Y769C] (Human immunodeficiency virus 1, UniProt P04585, K691N/Y769C); test: HIV-1 Reverse Transcriptase Assay; conditions: pH 8; 30 °C
T1 construct: 588-1027; 588-1147
From the text: (§1) IC50s were obtained from the inhibition of the RNA-dependent DNA polymerase activity of the HIV-1 reverse transcriptase enzyme using a primer extension assay. EC50s were obtained from inhibition of virus-induced cell-death in MT-4 cells.

[2] = biological target: T2, Gag-Pol polyprotein [588-1027] (Human immunodeficiency virus type 1 group M subtype B (isolate HXB2), UniProt P04585); test: HIV-1 Reverse Transcriptase Assay; conditions: pH 8; 30 °C
T2 construct: 588-1027
From the text: as §1

For `Cc1cc(C#N)cc(Oc2ccc(Cc3n[nH]c4nnccc34)cc2Br)c1` [3-(2-bromo-4-{1H-pyrazolo[3,4-c]pyridazin-3-ylmethyl}phenoxy)-5-methylbenzonitrile], the EC50 [1] was over 100 nM.

With `N#Cc1cc(Cl)cc(Oc2c(Br)ccc(Cc3n[nH]c4nccnc34)c2F)c1` [3-(6-bromo-2-fluoro-3-{1H-pyrazolo[3,4-b]pyrazin-3-ylmethyl}phenoxy)-5-chlorobenzonitrile] the EC50 [1] was over 100 nM and the EC50 [2] was over 25 nM.

Source: BindingDB's records for doi:10.1021/jm800527x (Roche Palo Alto, 2008)
